Data as given in ChEMBL document CHEMBL1201862, “PubChem BioAssay data set” (2004).
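96-well plates; 48 h exposure; 5 concentrations. Endpoints by linear interpolation between flanking doses. Not reached: highest tested concentration assigned. Here, GI50 denotes the concentration required for 50% inhibition of growth.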 Calls of active or inactive are those of the source. No stated cut-off is given here; in the data, active = GI50 up to about 1.1 µM and inactive = higher. Where a SMILES comes first, the peptide text is derived from it.

How the values were obtained:
Test in all cases: inhibition of tumour cell growth, NCI panel, 48 h
[1] = test system: DLD-1
[2] = test system: DMS-273
[3] = test system: HOP-18
[4] = test system: M19-MEL
[5] = test system: RXF 631
[6] = test system: SNB-78
[7] = test system: XF498
[8] = test system: BT-549
[9] = test system: Hs-578T

| SMILES | GI50 [1] | GI50 [2] | GI50 [3] | GI50 [4] | GI50 [5] | GI50 [6] | GI50 [7] | GI50 [8] | GI50 [9] |
| --- | --- | --- | --- | --- | --- | --- | --- | --- | --- |
| COC(=O)c1nc(-c2ccc(Cl)c(Cl)c2)nc2ccccc12 | > 25.2 µM (inactive) | 26.2 µM (inactive) | 2.01 µM (inactive) | > 100 µM (inactive) | > 67.6 µM (inactive) | 34.4 µM (inactive) | 6.81 µM (inactive) | – | – |
| O=C(c1nc2ccc(Cl)cc2[nH]c1=O)C(O)c1cccc([N+](=O)[O-])c1 (centres undefined) | > 100 µM (inactive) | > 100 µM (inactive) | > 100 µM (inactive) | > 100 µM (inactive) | – | > 100 µM (inactive) | 9.1 µM (inactive) | – | – |
| COc1cc2c(cc1OCc1ccccc1)CNCC2 | > 100 µM (inactive) | > 100 µM (inactive) | > 100 µM (inactive) | > 100 µM (inactive) | > 100 µM (inactive) | > 100 µM (inactive) | > 100 µM (inactive) | – | – |
| COc1ccc(C(=O)/C=C/c2ccc(OCC(=O)N3CCN(c4ccccc4)CC3)cc2)cc1 | > 100 µM (inactive) | 29.8 µM (inactive) | > 100 µM (inactive) | > 100 µM (inactive) | – | 15.1 µM (inactive) | 35.9 µM (inactive) | 24.9 µM (inactive) | > 40.7 µM (inactive) |
| Cc1cc(Cl)ccc1NC(=O)C1C(=O)N(c2ccc(Cl)cc2C)C(=O)/C1=N\NC(N)=S (centres undefined) | 35.3 µM (inactive) | 46.3 µM (inactive) | 16.8 µM (inactive) | 37.4 µM (inactive) | 45.6 µM (inactive) | 44 µM (inactive) | – | – | – |
| CC1=C(C(=O)Nc2ccccc2C)C(c2ccco2)C(C(=O)Nc2ccccc2C)=C(C)N1C | > 100 µM (inactive) | – | > 100 µM (inactive) | > 100 µM (inactive) | 81.5 µM (inactive) | > 100 µM (inactive) | > 100 µM (inactive) | – | – |
| COc1ccc(NC(=O)CC(=O)N2N=C(N(CCC#N)c3ccccc3Cl)CC2c2ccccc2)cc1 (centres undefined) | > 100 µM (inactive) | > 100 µM (inactive) | > 100 µM (inactive) | > 100 µM (inactive) | > 100 µM (inactive) | > 100 µM (inactive) | > 100 µM (inactive) | – | – |
| CCc1cccc(C)c1NC(C)=O | > 100 µM (inactive) | > 100 µM (inactive) | – | > 100 µM (inactive) | > 100 µM (inactive) | > 100 µM (inactive) | > 100 µM (inactive) | – | – |
| O=C(c1cccs1)N(C(=S)N1CCN(c2ccccn2)CC1)c1ccccc1 | > 100 µM (inactive) | 82.8 µM (inactive) | > 100 µM (inactive) | 81.1 µM (inactive) | – | > 100 µM (inactive) | 37.5 µM (inactive) | – | – |
| COC(=O)[C@@]12OC[C@]34C([C@@H](O)C1O)[C@@]1(C)CC(=O)C(OC(=O)CC(C)C(F)(F)F)=C(C)C1C[C@H]3OC(=O)[C@H](O)[C@H]42 (some centres undefined) | – | 0.379 µM (active) | 1.99 µM (inactive) | 0.434 µM (active) | – | 29.2 µM (inactive) | 0.13 µM (active) | – | – |
| CCCCCCCCCCCCCCCCOCC(CP(=O)([O-])OCC[n+]1ccccc1)OC (centres undefined) | 2.81 µM (inactive) | 2.04 µM (inactive) | – | 12.4 µM (inactive) | 14.6 µM (inactive) | 15.9 µM (inactive) | 12.1 µM (inactive) | – | – |
| CCC(C)C1NC(=O)C2CCCN2C(=O)CNC(=O)C(C)NC(=O)C(Cc2ccccc2)NC(=O)C(C(C)C)NC1=O (centres undefined) (cyclo(GPIVFA); configuration not given here) | > 100 µM (inactive) | – | > 100 µM (inactive) | > 100 µM (inactive) | > 100 µM (inactive) | – | – | – | – |
